The values that follow come from paper PMC11357446, “Searching for Novel HDAC6/Hsp90 Dual Inhibitors with Anti-Prostate Cancer Activity: In Silico Screening and In Vitro Evaluation” (Pharmaceuticals, 2024).

For test [1], the target named is T1, HDAC6 recombinant enzyme (Homo sapiens, UniProt Q9UBN7).
T1 sequence (Q9UBN7 1-1215): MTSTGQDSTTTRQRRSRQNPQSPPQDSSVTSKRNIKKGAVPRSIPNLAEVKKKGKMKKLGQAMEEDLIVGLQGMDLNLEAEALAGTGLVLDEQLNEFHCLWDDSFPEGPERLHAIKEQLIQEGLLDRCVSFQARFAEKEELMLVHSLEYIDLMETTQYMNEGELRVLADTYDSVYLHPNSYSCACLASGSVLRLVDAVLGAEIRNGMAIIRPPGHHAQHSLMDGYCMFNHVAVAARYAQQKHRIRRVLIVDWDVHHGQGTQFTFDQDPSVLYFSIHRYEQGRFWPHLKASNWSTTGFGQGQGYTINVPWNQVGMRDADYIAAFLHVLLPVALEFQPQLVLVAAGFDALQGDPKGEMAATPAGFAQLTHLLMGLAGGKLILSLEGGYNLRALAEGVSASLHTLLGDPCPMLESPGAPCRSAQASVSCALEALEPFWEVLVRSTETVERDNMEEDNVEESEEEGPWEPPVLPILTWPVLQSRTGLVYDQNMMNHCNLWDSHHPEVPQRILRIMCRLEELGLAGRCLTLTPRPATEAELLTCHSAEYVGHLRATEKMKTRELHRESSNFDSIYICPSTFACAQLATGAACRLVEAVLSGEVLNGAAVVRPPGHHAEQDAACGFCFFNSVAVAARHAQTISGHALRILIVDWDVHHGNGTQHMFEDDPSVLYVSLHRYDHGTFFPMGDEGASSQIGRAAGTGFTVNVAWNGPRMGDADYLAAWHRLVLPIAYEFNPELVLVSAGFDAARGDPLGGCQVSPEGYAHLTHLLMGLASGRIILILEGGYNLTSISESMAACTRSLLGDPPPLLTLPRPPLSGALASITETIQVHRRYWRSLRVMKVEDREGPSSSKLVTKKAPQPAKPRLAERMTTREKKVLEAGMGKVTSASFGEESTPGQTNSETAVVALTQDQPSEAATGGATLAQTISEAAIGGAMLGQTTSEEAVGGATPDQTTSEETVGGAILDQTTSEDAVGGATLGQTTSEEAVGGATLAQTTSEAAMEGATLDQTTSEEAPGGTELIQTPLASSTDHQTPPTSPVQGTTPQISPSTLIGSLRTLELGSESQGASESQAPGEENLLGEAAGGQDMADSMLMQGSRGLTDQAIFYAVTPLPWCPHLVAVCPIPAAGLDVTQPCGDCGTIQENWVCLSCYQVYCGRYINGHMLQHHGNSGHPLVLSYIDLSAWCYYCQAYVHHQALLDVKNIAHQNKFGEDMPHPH
Nature of the test: Fluorimetric HDAC6 assay. It counts as biochemical. To be noted: singlicate. How it is done: In vitro assessments of compounds on the HDAC6 enzyme were performed, as described in our previous works. […] The blank employed for curve fitting was evaluated on a solution of the buffer containing a concentration of […] of DMSO. IC50 values were calculated by using the GraphPad Prism 4 program based on a sigmoidal dose–response equation.

Test [2] has as its system acetylated tubulin (Ac-Tub) in LNCaP cells. Nature of the test: Western blot of acetylated α-Tubulin in LNCaP cells. It counts as cell-based, human. The note with it: 24 h at GI50 concentration, normalized with Tubulin. The method, then: To assess whether the observed antiproliferative activity of the selected compounds was a consequence of HDAC6-targeting, we examined the effect of the cell treatments on the expression levels of acetylated tubulin (Ac-Tub), a well-known HDAC6 target. LNCaP and PC-3 cells were treated with the tested compounds at their GI50 concentrations, and SDS-PAGE and western blot were performed. In addition, the acetylation levels of histone H3, which are mainly regulated by HDAC1, were also evaluated in order to exclude potential class I-HDAC off-target activities. We used Tubastatin-A and Geldanamycin as reference controls for cellular effects resulting from HDAC6- and Hsp90-inhibition, respectively. The results in Figure 2 show a significant increase in α-Tubulin acetylation in LNCaP cells after treatments with compounds 8, 11 and 18. Indeed, these compounds triggered a 2.9-, 5.1-, and 2.5-fold increase, respectively, compared to the control (DMSO). […].
Figure 2 Western blot analysis and relative quantification of the expression levels of acetylated-Tubulin (Ac-TUB), acetylated H3 (Ac-H3), and HSP70 in LNCaP (A,B) and PC-3 (C,D) cells treated for 24 h at GI50 concentration. Tubastatin-A was used as HDAC6-specific positive control, Geldanamycin (GELDA) as HSP90-specific positive control, and SAHA as pan-HDAC inhibitor. Protein expression was normalized with Tubulin levels (Ac-TUB and HSP70) or total H3 (Ac-H3). Quantification is reported as fold change in treated cells versus DMSO control (CTR), arbitrarily set at 1 (one sample t-test p-values: * p < 0.05, ** p < 0.01, *** p < 0.001, **** p < 0.0001; n = 3).
Cell treatment. PC-3 and LNCaP cells were grown in 12-well tissue-culture plates and treated with test compounds at the evaluated GI50 concentration for each candidate inhibitor for 24 h. DMSO was used as a negative control, while Tubastatin-A and Geldanamycin were used as positive controls for HDAC6 and Hsp90 inhibition, respectively. Vorinostat (SAHA) was used as a pan-HDACi control. […] Protein quantitation was performed with Pierce Detergent Compatible Bradford Assay (#23246, Thermo Fisher Scientific, MA, USA), and equivalent amounts of cellular extracts were resolved by SDS-PAGE, transferred to PVDF or Nitrocellulose membrane with Trans-Blot Turbo Transfer System (Bio-Rad, Hercules, CA, USA), and immunoblotted with the following primary antibodies, diluted 1:1000 in 1× TBS with 1 mg/mL BSA: Anti-Histone H3 (#PA5-16183, Invitrogen, Thermo Fisher Scientific, MA, USA), Anti-acetylated histone H3 (#sc-518011, Santa Cruz Biotechnology, Inc., Dallas, TX, USA), Anti-Tubulin (#E-AB-20073, Elabscience, Houston, TX, USA), Anti-acetylated α-tubulin (#sc-23950, Santa Cruz), and Anti-HSP70 (#4872S, Cell Signaling Technology, Inc., Danvers, MA, USA). […]

As a reminder, the IC50 is the midpoint of a concentration-inhibition curve. Consider `O=C(c1cc(OCc2ccccc2)ccc1O)N1CCC(c2noc(C(F)(F)F)n2)CC1` [Compound 8], for which the IC50 in test [1] worked out at 6500 nM. The “α-Tubulin acetylation, fold increase compared to the control (DMSO)” value (from here on “α-Tubulin acetylation, fold increase”) in test [2] is 2.9 fold.
With `CC(C)[C@H](C(=O)NCc1ccc(C(=O)NO)cc1)N1Cc2ccccc2C1=O` [Compound 11], in test [1], the IC50 was determined as 5 nM. Further, the “α-Tubulin acetylation, fold increase” value in test [2] came out at 5.1 fold.
`O=C(Nc1ncccc1O)c1ccc(-c2noc(C(F)(F)F)n2)cc1` [Compound 18]: the IC50 in test [1] came to 2700 nM. The “α-Tubulin acetylation, fold increase” value in test [2] is 2.5 fold.
